The record followed here is patent US9504669B2, “Spliceostatin analogs and methods for their preparation” (PFIZER INC., priority 2012, dated 2016).

Structures can show the parent of a compound that is named as a salt.

Holding throughout (assay type): cell-based
Test [1] deals with MDA-MB-361-DYT2 (breast cancer) cells. Put plainly: In vitro cell assay (MTS cell viability), MDA-MB-361-DYT2. The following applies: 96 h, free compounds (natural products and synthetic analogs); cell viability 96 hours after treatment. In outline: (§1)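 Cells seeded 24 h, then treated with antibody-drug conjugates or free drug, 3-fold serial dilutions at 10 concentrations in duplicate. Viability by MTS at 96 h as percent of untreated control; IC50 from four-parameter logistic fit.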

In test [2] the test system is BT474 (breast cancer) cells. Put plainly: In vitro cell assay (MTS cell viability), BT474. The following applies: Homo sapiens, BT-474; free compounds (natural products and synthetic analogs); cell viability 96 hours after treatment. Put shortly:
as §1

Test [3] has as its system N87 (gastric cancer) cells. Put plainly: In vitro cell assay (MTS cell viability), N87. The following applies: 96 h, free compounds (natural products and synthetic analogs); cell viability 96 hours after treatment. Put shortly: as §1
Test [4] concerns MDA-MB-468 cells (target non-expressing). Put plainly: In vitro cell assay (MTS cell viability), MDA-MB-468. The following applies: Homo sapiens, MDA-MB-468, 96 h, read-out: MDA-MB-468 IC50 (nM). The method, then:
Target expressing (BT474 (breast cancer), N87 (gastric cancer), HCC1954 (breast cancer), MDA-MB-361-DYT2 (breast cancer)) or non-expressing (MDA-MB-468) cells were seeded in 96-well cell culture plates for 24 hours before treatment. Cells were treated with 3-fold serially diluted antibody-drug conjugates or free compounds (i.e., no antibody conjugated to the drug) in duplicate at 10 concentrations. Cell viability was determined by CellTiter 96® AQueous One Solution Cell Proliferation MTS Assay (Promega, Madison Wis.) 96 hours after treatment. Relative cell viability was determined as percentage of untreated control. IC50 values were calculated using a four parameter logistic model #203 with XLfit v4.2 (IDBS, Guildford, Surry, UK). The potency ranged upward from 0.0002 nm. Similar procedures and techniques were employed.

With `CC(/C=C/[C@H]1O[C@H](CC(=O)O)C[C@@]2(CO2)[C@@H]1O)=C\C[C@@H]1O[C@H](C)[C@H](NC(=O)/C=C\[C@H](C)O)C[C@@H]1C` [#B4, [(3R,5S,7R,8R)-8-hydroxy-7-{(1E,3E)-5-[(2S,3S,5R,6R)-5-{[(2Z,4S)-4-hydroxypent-2-enoyl]amino}-3,6-dimethyltetrahydro-2H-pyran-2-yl]-3-methylpenta-1,3-dien-1-yl}-1,6-dioxaspiro[2.5]oct-5-yl]acetic acid], the IC50 in test [1], in test [2], in test [3] and in test [4] was above 100 nM each time.
With `CC(=O)O[C@@H](C)/C=C\C(=O)N[C@@H]1C[C@H](C)[C@H](C/C=C(C)/C=C/[C@H]2O[C@H](CC(=O)NN)C[C@@]3(CO3)[C@@H]2O)O[C@@H]1C` [#B6, (2S,3Z)-5-{[(2R,3R,5S,6S)-6-{(2E,4E)-5-[(3R,4R,5R,7S)-7-(2-hydrazinyl-2-oxoethyl)-4-hydroxy-1,6-dioxaspiro[2.5]oct-5-yl]-3-methylpenta-2,4-dien-1-yl}-2,5-dimethyltetrahydro-2H-pyran-3-yl]amino}-5-oxopent-3-en-2-yl acetate], the IC50 (as a rule, the concentration that inhibits the measured activity by half) in test [1] came to 25.4 nM; in test [2], 16.5 nM; in test [3], 5.66 nM; in test [4], 7.97 nM.
On the same counts, the results for `CC(=O)O[C@@H](C)/C=C\C(=O)N[C@@H]1C[C@H](C)[C@H](C/C=C(C)/C=C/[C@@H]2C[C@]3(CO3)C[C@@H](CC(N)=O)O2)O[C@@H]1C` [#B15, (2S,3Z)-5-{[(2R,3R,5S,6S)-6-{(2E,4E)-5-[(3S,5S,7S)-7-(2-amino-2-oxoethyl)-1,6-dioxaspiro[2.5]oct-5-yl]-3-methylpenta-2,4-dien-1-yl}-2,5-dimethyltetrahydro-2H-pyran-3-yl]amino}-5-oxopent-3-en-2-yl acetate] are 0.537 nM, 0.522 nM, 0.203 nM and 0.363 nM.
For `CCCNC(=O)C[C@@H]1C[C@@]2(CO2)C[C@@H](/C=C/C(C)=C/C[C@@H]2O[C@H](C)[C@H](NC(=O)/C=C\[C@H](C)OC(C)=O)C[C@@H]2C)O1` [#B64, (2S,3Z)-5-({(2R,3R,5S,6S)-2,5-dimethyl-6-[(2E,4E)-3-methyl-5-{(3S,5S,7S)-7-[2-oxo-2-(propylamino)ethyl]-1,6-dioxaspiro[2.5]oct-5-yl}penta-2,4-dien-1-yl]tetrahydro-2H-pyran-3-yl}amino)-5-oxopent-3-en-2-yl acetate], the half-inhibitory concentration (IC50) came out at 5.26 nM in test [2], 24.8 nM in test [3] and 1.38 nM in test [4].
The like results for `CCCNC(=O)C[C@@H]1C[C@@]2(CO2)[C@H](O)[C@@H](/C=C/C(C)=C/C[C@@H]2O[C@H](C)[C@H](NC(=O)/C=C\[C@H](C)OC(=O)N3CCCCC3)C[C@@H]2C)O1` [#B66, (2S,3Z)-5-({(2R,3R,5S,6S)-6-[(2E,4E)-5-{(3R,4R,5R,7S)-4-hydroxy-7-[2-oxo-2-(propylamino)ethyl]-1,6-dioxaspiro[2.5]oct-5-yl}-3-methylpenta-2,4-dien-1-yl]-2,5-dimethyltetrahydro-2H-pyran-3-yl}amino)-5-oxopent-3-en-2-yl piperidine-1-carboxylate] were, in that order, 0.18 nM, 1.58 nM and 0.27 nM.
`CC(/C=C/[C@@H]1C[C@]2(CO2)C[C@@H](CN)O1)=C\C[C@@H]1O[C@H](C)[C@H](NC(=O)/C=C\[C@H](C)O)C[C@@H]1C` [#B139, (2Z,4S)—N-[(2R,3R,5S,6S)-6-{(2E,4E)-5-[(3R,5S,7S)-7-(aminomethyl)-1,6-dioxaspiro[2.5]oct-5-yl]-3-methylpenta-2,4-dien-1-yl}-2,5-dimethyltetrahydro-2H-pyran-3-yl]-4-hydroxypent-2-enamide, acetate salt]: the IC50 came to 13.4 nM in test [1], 5.49 nM in test [2] and 6.51 nM in test [3].
As for `CC(=O)O[C@@H](C)/C=C\C(=O)N[C@@H]1C[C@H](C)[C@H](C/C=C(C)/C=C/[C@@H]2C[C@]3(CO3)C[C@@H](CN)O2)O[C@@H]1C` [#B140, (2S,3Z)-5-{[(2R,3R,5S,6S)-6-{(2E,4E)-5-[(3R,5S,7S)-7-(aminomethyl)-1,6-dioxaspiro[2.5]oct-5-yl]-3-methylpenta-2,4-dien-1-yl}-2,5-dimethyltetrahydro-2H-pyran-3-yl]amino}-5-oxopent-3-en-2-yl acetate, acetate salt], the IC50 in test [1] is 0.632 nM; in test [2], 0.517 nM; in test [3], 1.01 nM.
The like results for `CC(=O)O[C@@H](C)/C=C\C(=O)N[C@@H]1C[C@H](C)[C@H](C/C=C(C)/C=C/[C@H]2O[C@H](CC(=O)N[C@H]3CC[C@H](O)CC3)C[C@@]3(CO3)[C@@H]2O)O[C@@H]1C` [#B141, (2S,3Z)-5-{[(2R,3R,5S,6S)-6-{(2E,4E)-5-[(3R,4R,5R,7S)-4-hydroxy-7-{2-[(trans-4-hydroxycyclohexyl)amino]-2-oxoethyl}-1,6-dioxaspiro[2.5]oct-5-yl]-3-methylpenta-2,4-dien-1-yl}-2,5-dimethyltetrahydro-2H-pyran-3-yl]amino}-5-oxopent-3-en-2-yl acetate] were, in that order, 12.8 nM, 10.9 nM and 11 nM.
On the same counts, the results for `CC(=O)O[C@@H](C)/C=C\C(=O)N[C@@H]1C[C@H](C)[C@H](C/C=C(C)/C=C/[C@H]2O[C@H](CN)C[C@@]3(CO3)[C@@H]2O)O[C@@H]1C` [#B147, (2S,3Z)-5-{[(2R,3R,5S,6S)-6-{(2E,4E)-5-[(3R,4R,5R,7S)-7-(aminomethyl)-4-hydroxy-1,6-dioxaspiro[2.5]oct-5-yl]-3-methylpenta-2,4-dien-1-yl}-2,5-dimethyltetrahydro-2H-pyran-3-yl]amino}-5-oxopent-3-en-2-yl acetate, acetate salt] are 17.2 nM, 6.81 nM and 9.92 nM.
As to `CC(=O)O[C@@H](C)/C=C\C(=O)N[C@@H]1C[C@H](C)[C@H](C/C=C(C)/C=C/[C@H]2O[C@H](CC(=O)O)C[C@@](O)(CCl)[C@@H]2O)O[C@@H]1C` [#NP5, (5R)-5-{(1E,3E)-5-[(2S,3S,5R,6R)-5-{[(2Z,4S)-4-(acetyloxy)pent-2-enoyl]amino}-3,6-dimethyltetrahydro-2H-pyran-2-yl]-3-methylpenta-1,3-dien-1-yl}-1,5-anhydro-1-(carboxymethyl)-3-C-(chloromethyl)-2-deoxypentitol], the IC50 in test [2], in test [3] and in test [4] was above 100 nM each time.
Take `CC(=O)O[C@@H](C)/C=C\C(=O)N[C@@H]1C[C@H](C)[C@H](C/C=C(C)/C=C/[C@H]2OC(C)(O)C(O)C(O)(CO)C2O)O[C@@H]1C` (stereo partly drawn) [#NP6, (6R)-6-{(1E,3E)-5-[(2S,3S,5R,6R)-5-{[(2Z,4S)-4-(acetyloxy)pent-2-enoyl]amino}-3,6-dimethyltetrahydro-2H-pyran-2-yl]-3-methylpenta-1,3-dien-1-yl}-1-deoxy-4-C-(hydroxymethyl)hex-2-ulopyranose]: the IC50 in test [2], in test [3] and in test [4] was above 100 nM each time.
With `CC(=O)OCC1(O)CC(/C=C/C(C)=C/C[C@@H]2O[C@H](C)[C@H](NC(=O)/C=C\[C@H](C)OC(C)=O)C[C@@H]2C)OC(CC(=O)O)C1` (stereo partly drawn) [#NP7, (4-[(acetyloxy)methyl]-6-{(1E,3E)-5-[(2S,3S,5R,6R)-5-{[(2Z,4S)-4-(acetyloxy)pent-2-enoyl]amino}-3,6-dimethyltetrahydro-2H-pyran-2-yl]-3-methylpenta-1,3-dien-1-yl}-4-hydroxytetrahydro-2H-pyran-2-yl)acetic acid], the IC50 in test [2], in test [3] and in test [4] was above 100 nM each time.
Regarding `CC(=O)O[C@@H](C)/C=C\C(=O)N[C@@H]1C[C@H](C)[C@H](C/C=C(C)/C=C/C2CC(O)(CCl)CC(CC(=O)O)O2)O[C@@H]1C` (stereo partly drawn) [#NP8, [6-{(1E,3E)-5-[(2S,3S,5R,6R)-5-{[(2Z,4S)-4-(acetyloxy)pent-2-enoyl]amino}-3,6-dimethyltetrahydro-2H-pyran-2-yl]-3-methylpenta-1,3-dien-1-yl}-4-(chloromethyl)-4-hydroxytetrahydro-2H-pyran-2-yl]acetic acid], the IC50 came out at 1.94 nM in test [2], 0.643 nM in test [3] and 1.35 nM in test [4].
On the same counts, the results for `CC(=O)OCC1(O)C(O)C(/C=C/C(C)=C/C[C@@H]2O[C@H](C)[C@H](NC(=O)/C=C\[C@H](C)OC(C)=O)C[C@@H]2C)OC(C)(O)C1O` (stereo partly drawn) [#NP9, 4-C-[(acetyloxy)methyl]-6-{(1E,3E)-5-[(2S,3S,5R,6R)-5-{[(2Z,4S)-4-(acetyloxy)pent-2-enoyl]amino}-3,6-dimethyltetrahydro-2H-pyran-2-yl]-3-methylpenta-1,3-dien-1-yl}-1-deoxyhex-2-ulopyranose] are 65.8 nM, 74.3 nM and 59.2 nM.
As to `CC(=O)O[C@@H](C)/C=C\C(=O)N[C@@H]1C[C@H](C)[C@H](C/C=C(C)/C=C/[C@@H]2C[C@]3(CO3)C[C@@](C)(O)O2)O[C@@H]1C` [#NP12, (2S,3Z)-5-{[(2R,3R,5S,6S)-6-{(2E,4E)-5-[(3R,5S,7S)-7-hydroxy-7-methyl-1,6-dioxaspiro[2.5]oct-5-yl]-3-methylpenta-2,4-dien-1-yl}-2,5-dimethyltetrahydro-2H-pyran-3-yl]amino}-5-oxopent-3-en-2-yl acetate], the figures for the IC50 in test [1], in test [2] and in test [3] were 4.91 nM, 5.02 nM and 13.8 nM, respectively.
